Literature values as cited in patent publication US6855351B2, “Pesticide formulation containing azadirachtin (not less than 300 ppm) and salanin in a formulated product with neem oil” (T. Stanes and Company Limited, priority 2002, dated 2005).

Test system: mammals
Conditions: in vivo

In the case of `C/C=C(\C)C(=O)O[C@H]1C[C@@H](OC(C)=O)[C@@]2(C(=O)OC)CO[C@H]3[C@@H](O)[C@@](C)([C@]45O[C@@]4(C)[C@H]4C[C@@H]5O[C@@H]5OC=C[C@@]54O)[C@H]4[C@]1(CO[C@]4(O)C(=O)OC)[C@@H]32` [Azadirachtin], the mammalian toxicity is given as “no apparent mammalian toxicity”.
